According to patent publication US20260061082A1, “PROSTATE-SPECIFIC MEMBRANE ANTIGEN TARGETED DEEP-TUMOR PENETRATION OF POLYMER NANODRUGS AND METHODS OF USE THEREOF” (priority 2022, published 2026):
“And” between values parts separate entries of the source, which are not always exact repeats. Identical values can stand only once. Like-named read-outs stand apart in the source and are kept apart here.

What was measured:
[1] = target: T1, PSMA (PSMA+ PC3-Pip cells) (Homo sapiens, UniProt Q04609); experiment: 68Ga-PSMA-11 competition radioligand binding assay
T1 construct: host or cells: PC3-Pip (PSMA+ subline of PC-3)
Procedure: Competition Radioligand Binding Assay: The nanoparticles were utilized in a ^68Ga-PSMA-11 competition radioligand binding assay to obtain the IC50 values, similar to our prior method. […] PC3-Pip cells were seeded in 96-well plates (˜20 k cells/wells) ˜24 h prior testing in RPMI1640 medium containing with 10% FBS and 1% penicillin/streptomycin. The growth medium was discarded, and the cells were washed with PBS two times. […] The treated cells were incubated for 1 h at room temperature. Then, the radioactive medium was discarded, and the cells were washed twice with PBS. The cells in each well were then treated with NaOH (5N, 250 μL) and incubated for 30 min at 37° C. for lysis. The lysate from each well was collected in vials and analyzed in a Hidex gamma counter to quantify the bound activity. IC50 was calculated by nonlinear regression analysis in Graph-Pad Prism software.
Competition Radioligand Binding Assay: Similar to our prior reported protocol, ^68Ga-PSMA-11 was produced in a ^68Ge/^68Ga generator, and used in a competition radioligand binding assay to acquire the IC50 values for the nanocarriers. […] After 1 h incubated at room temperature, the radioactive medium was removed, and the cells were washed with PBS twice. The cells were lyzed with sodium hydroxide and the radioactivity of the lysate in each well was counted in a Hidex gamma counter. IC50 was determined by nonlinear regression analysis in Prism software (Graph-Pad).

PSMA = PSMA (Homo sapiens, UniProt Q04609); details: previously reported; cited from earlier work
[2] = system: PC3-Pip metastatic tumors; experiment: Ex vivo organ biodistribution of [68Ga]PSMA-11 in PC3-Pip metastatic models after treatment; details: Control mice (no 177Lu nanocarrier), individual mice
[3] = system: PSMA+ PC3-Pip subcutaneous tumors; experiment: Treatment study in PSMA+ PC3-Pip subcutaneous models; assay type: in vivo, mice; details: 250 μCi single dose
Procedure: The tumor measurements were carried out twice a week, and tumor volumes were calculated by formula V=[length×(width)^2]/2.

[4] = system: prostate specific antigen; details: patients receiving as low as 14 Gy tumor-absorbed dose; cited from earlier work
[5] = system: PSMA+ PC3-Pip subcutaneous tumors; details: prior literature; cited from earlier work

T1 sequence (Q04609 whole entry): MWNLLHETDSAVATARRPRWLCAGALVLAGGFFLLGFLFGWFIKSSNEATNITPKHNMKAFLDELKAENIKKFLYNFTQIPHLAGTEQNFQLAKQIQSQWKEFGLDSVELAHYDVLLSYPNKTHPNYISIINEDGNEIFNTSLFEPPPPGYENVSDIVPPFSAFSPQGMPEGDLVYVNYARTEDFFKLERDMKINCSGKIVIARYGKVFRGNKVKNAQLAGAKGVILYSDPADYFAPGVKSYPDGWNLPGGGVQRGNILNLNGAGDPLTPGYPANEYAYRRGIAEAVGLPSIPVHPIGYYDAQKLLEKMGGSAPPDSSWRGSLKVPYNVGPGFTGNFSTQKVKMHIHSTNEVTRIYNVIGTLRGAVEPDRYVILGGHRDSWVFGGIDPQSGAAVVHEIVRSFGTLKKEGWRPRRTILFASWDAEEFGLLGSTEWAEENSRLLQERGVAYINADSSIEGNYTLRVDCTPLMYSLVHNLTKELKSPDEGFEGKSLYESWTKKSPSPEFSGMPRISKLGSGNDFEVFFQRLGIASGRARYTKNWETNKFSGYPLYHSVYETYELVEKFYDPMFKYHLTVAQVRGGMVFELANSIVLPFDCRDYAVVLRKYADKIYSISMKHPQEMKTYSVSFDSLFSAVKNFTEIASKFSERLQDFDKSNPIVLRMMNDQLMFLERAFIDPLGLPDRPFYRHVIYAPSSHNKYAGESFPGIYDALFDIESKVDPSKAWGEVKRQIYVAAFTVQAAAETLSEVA
Sequence of PSMA (Q04609 whole entry, species assumed): as the sequence (Q04609 whole entry) above

**Q.** Which IC50 ([1]; Table 2 Experiment 1, unlabeled) does the source give for [N-]=[N+]=NCCCCCCOC(=O)NCCCC[C@H](NC(=O)N[C@@H](CCC(=O)O)C(=O)O)C(=O)O [Azido-ACUPA] here?
**A.** 0.35 µM

**Q.** And the IC50 ([1]; Table 10 Experiment 2, unlabeled)?
**A.** 0.328 µM

**Q.** Which IC50 ([1]; Table 10 Experiment 1, unlabeled) does the source give for O=C(O)CC[C@H](NC(=O)N[C@@H](CCCCNC(=O)Nc1ccc(I)cc1)C(=O)O)C(=O)O [PSMA-2] here?
**A.** 0.0255 µM

**Q.** What about the Ki (PSMA) of the same molecule?
**A.** 0.00024 µM

**Q.** Which results are given for O=C([O-])CN(CCN(CC(=O)[O-])Cc1cc(CCC(=O)NCCCCCC(=O)NCCCC[C@H](NC(=O)N[C@@H](CCC(=O)O)C(=O)O)C(=O)O)ccc1[O-])Cc1cc(CCC(=O)O)ccc1[O-].[68Ga+3].[OH3+] [[^68Ga]PSMA-11]?
**A.** [^68Ga]PSMA-11 ex vivo organ biodistribution, Blood ([2]; day 35): 0.114 % ID/g and 0.2999 % ID/g and 0.08 % ID/g and 0.1 % ID/g and 0.06 % ID/Organ and 0.2029 % ID/Organ and 0.05813 % ID/Organ and 0.05324 % ID/Organ; [^68Ga]PSMA-11 ex vivo organ biodistribution, Bone ([2]; day 35): 0.335 % ID/g and 0.215 % ID/g and 0.2269 % ID/g and 0.3033 % ID/g and 0.08 % ID/Organ and 0.05419 % ID/Organ and 0.04439 % ID/Organ and 0.06845 % ID/Organ; [^68Ga]PSMA-11 ex vivo organ biodistribution, Brain ([2]; day 35): 0.046 % ID/g and 0.01371 % ID/g and 0.02404 % ID/g and 0.03404 % ID/g and 0.02 % ID/Organ and 0.004254 % ID/Organ and 0.009255 % ID/Organ and 0.01265 % ID/Organ; [^68Ga]PSMA-11 ex vivo organ biodistribution, Heart ([2]; day 35): 1.938 % ID/g and 1.093 % ID/g and 0.8842 % ID/g and 0.9371 % ID/g and 0.29 % ID/Organ and 0.1577 % ID/Organ and 0.1548 % ID/Organ and 0.1476 % ID/Organ; [^68Ga]PSMA-11 ex vivo organ biodistribution, Large Int ([2]; day 35): 0.663 % ID/g and 0.3338 % ID/g and 0.1292 % ID/g and 0.592 % ID/g and 0.09 % ID/Organ and 0.08014 % ID/Organ and 0.03072 % ID/Organ and 0.1919 % ID/Organ; [^68Ga]PSMA-11 ex vivo organ biodistribution, Liver ([2]; day 35): 0.855 % ID/g and 0.4054 % ID/g and 0.232 % ID/g and 0.289 % ID/g and 0.62 % ID/Organ and 0.2982 % ID/Organ and 0.1099 % ID/Organ and 0.2246 % ID/Organ; [^68Ga]PSMA-11 ex vivo organ biodistribution, Lung ([2]; day 35): 8.218 % ID/g and 1.814 % ID/g and 1.285 % ID/g and 1.336 % ID/g and 3.12 % ID/Organ and 0.2767 % ID/Organ and 0.1869 % ID/Organ and 0.2393 % ID/Organ; [^68Ga]PSMA-11 ex vivo organ biodistribution, Muscle ([2]; day 35): 0.414 % ID/g and 0.2044 % ID/g and 0.2192 % ID/g and 0.1624 % ID/g and 0.2 % ID/Organ and 0.05644 % ID/Organ and 0.04564 % ID/Organ and 0.04172 % ID/Organ; [^68Ga]PSMA-11 ex vivo organ biodistribution, Pancreas ([2]; day 35): 0.464 % ID/g and 0.2066 % ID/g and 0.2297 % ID/g and 0.5007 % ID/g and 0.04 % ID/Organ and 0.02448 % ID/Organ and 0.03206 % ID/Organ and 0.07795 % ID/Organ; [^68Ga]PSMA-11 ex vivo organ biodistribution, Skin ([2]; day 35): 3.25 % ID/g and 0.586 % ID/g and 0.9817 % ID/g and 0.4433 % ID/g and 1.08 % ID/Organ and 0.2667 % ID/Organ and 0.196 % ID/Organ and 0.2187 % ID/Organ; [^68Ga]PSMA-11 ex vivo organ biodistribution, Small Int ([2]; day 35): 0.29 % ID/g and 0.1397 % ID/g and 0.1663 % ID/g and 0.1479 % ID/g and 0.03 % ID/Organ and 0.02347 % ID/Organ and 0.03142 % ID/Organ and 0.02756 % ID/Organ; [^68Ga]PSMA-11 ex vivo organ biodistribution, Splcon ([2]; day 35): 22.586 % ID/g and 8.851 % ID/g and 8.108 % ID/g and 16.38 % ID/g; [^68Ga]PSMA-11 ex vivo organ biodistribution, Spleen ([2]; day 35): 1.34 % ID/Organ and 1.068 % ID/Organ and 0.7168 % ID/Organ and 1.253 % ID/Organ; [^68Ga]PSMA-11 ex vivo organ biodistribution, Stomach ([2]; day 35): 0.171 % ID/g and 0.3271 % ID/g and 0.1157 % ID/g and 0.09441 % ID/g and 0.16 % ID/Organ and 0.1002 % ID/Organ and 0.07062 % ID/Organ and 0.08055 % ID/Organ; [^68Ga]PSMA-11 ex vivo organ biodistribution, Blood ([2]; day 50): 0.212 % ID/g and 0.29 % ID/g and 0.207 % ID/g and 0.07 % ID/g and 0.13 % ID/Organ and 0.26 % ID/Organ and 0.14 % ID/Organ; [^68Ga]PSMA-11 ex vivo organ biodistribution, Bone ([2]; day 50): 0.398 % ID/g and 1.082 % ID/g and 0.335 % ID/g and 0.768 % ID/g and 0.06 % ID/Organ and 0.07 % ID/Organ and 0.05 % ID/Organ; [^68Ga]PSMA-11 ex vivo organ biodistribution, Brain ([2]; day 50): 0.037 % ID/g and 0.073 % ID/g and 0.024 % ID/g and 0.025 % ID/g and 0.01 % ID/Organ and 0.02 % ID/Organ; [^68Ga]PSMA-11 ex vivo organ biodistribution, Heart ([2]; day 50): 1.037 % ID/g and 1.182 % ID/g and 0.615 % ID/g and 0.906 % ID/g and 0.16 % ID/Organ and 0.09 % ID/Organ and 0.14 % ID/Organ and 0.18 % ID/Organ; [^68Ga]PSMA-11 ex vivo organ biodistribution, Large Int ([2]; day 50): 0.766 % ID/g and 0.402 % ID/g and 1.093 % ID/g and 1.205 % ID/g and 0.12 % ID/Organ and 0.06 % ID/Organ and 0.24 % ID/Organ and 0.25 % ID/Organ; [^68Ga]PSMA-11 ex vivo organ biodistribution, Liver ([2]; day 50): 2.351 % ID/g and 1.41 % ID/g and 0.215 % ID/g and 0.336 % ID/g and 3.36 % ID/Organ and 0.35 % ID/Organ and 0.3 % ID/Organ and 0.41 % ID/Organ; [^68Ga]PSMA-11 ex vivo organ biodistribution, Lungs ([2]; day 50): 4.185 % ID/g and 14.472 % ID/g and 1.403 % ID/g and 2.187 % ID/g and 0.55 % ID/Organ and 1.74 % ID/Organ and 0.19 % ID/Organ and 0.34 % ID/Organ; [^68Ga]PSMA-11 ex vivo organ biodistribution, Muscle ([2]; day 50): 0.335 % ID/g and 0.498 % ID/g and 0.405 % ID/g and 0.533 % ID/g and 0.04 % ID/Organ and 0.06 % ID/Organ and 0.11 % ID/Organ and 0.09 % ID/Organ; [^68Ga]PSMA-11 ex vivo organ biodistribution, Pancreas ([2]; day 50): 0.568 % ID/g and 0.668 % ID/g and 0.447 % ID/g and 0.649 % ID/g and 0.05 % ID/Organ and 0.07 % ID/Organ and 0.06 % ID/Organ; [^68Ga]PSMA-11 ex vivo organ biodistribution, Skin ([2]; day 50): 1.068 % ID/g and 2.397 % ID/g and 0.883 % ID/g and 0.807 % ID/g and 0.62 % ID/Organ and 0.6 % ID/Organ and 0.31 % ID/Organ and 0.33 % ID/Organ; [^68Ga]PSMA-11 ex vivo organ biodistribution, Small Int ([2]; day 50): 0.365 % ID/g and 0.631 % ID/g and 0.23 % ID/g and 0.289 % ID/g and 0.05 % ID/Organ and 0.09 % ID/Organ and 0.06 % ID/Organ and 0.07 % ID/Organ; [^68Ga]PSMA-11 ex vivo organ biodistribution, Spleen ([2]; day 50): 10.073 % ID/g and 86.889 % ID/g and 5.37 % ID/g and 8.812 % ID/g and 0.58 % ID/Organ and 1.25 % ID/Organ and 0.94 % ID/Organ and 1.1 % ID/Organ; [^68Ga]PSMA-11 ex vivo organ biodistribution, Stomach ([2]; day 50): 0.605 % ID/g and 0.424 % ID/g and 0.154 % ID/g and 0.107 % ID/g and 0.34 % ID/Organ and 0.17 % ID/Organ and 0.12 % ID/Organ and 0.11 % ID/Organ

**Q.** What does the source list for O=C([O-])CN1CCN(CC(=O)[O-])CCN(CC(=O)NCC2CCC(C(=O)N[C@@H](Cc3ccc4ccccc4c3)C(=O)NCCCC[C@H](NC(=O)N[C@@H](CCC(=O)O)C(=O)O)C(=O)O)CC2)CCN(CC(=O)[O-])CC1.[177Lu+3] (stereo partly shown) [[^177Lu]PSMA-617]?
**A.** median survival [3]: 46 days; reduction of prostate specific antigen [4]: more than 50%; median survival [5]: 51 days
